From patent US20130071495A1, “INHIBITORS OF GLYCOGEN SYNTHASE KINASE 3 FOR USE IN THERAPEUTIC METHODS AND SCREENING METHOD RELATING THERETO” (Helmholtz Zentrum Muenchen Deutsches Forschungszentrum fuer …, priority 2010, published 2013)

Legend:
Format in all cases: in vivo, C57BL/6N mice
[1] = tested on: elastase-induced emphysema model (mice); assay: Quantitative morphometry of lung structure in elastase-induced emphysema
Protocol: (§1) Six- to eight-week-old pathogen-free female C57BL/6N mice (Charles River Laboratories) were used throughout this study. All experiments were performed in accordance with the guidelines of the Ethics Committee of the University of Giessen School of Medicine and approved by the Regierungspräsidium Giessen, Hesse, Germany. Mice had free access to water and rodent laboratory chow. Pancreatic elastase was dissolved in sterile PBS and applied orotracheally (100 U/kg BW). Control mice received 80 μl sterile PBS. Lung tissues were excised and snap-frozen or inflated with 4% (m/v) paraformaldehyde in PBS (PAA Laboratories) at 21 cm H2O pressure for histological analyses.
The WNT/β-catenin signaling pathway in lungs from C57BL/6N mice was activated via intraperitoneal injection of lithium chloride (200 mg/KG/BW/day) (22). […]
To assess air space enlargement, the mean chord length (MCL) was quantified by superimposing a line grid on the images of lung sections at a magnification of 200×. Points on the lines of the grid hitting the air spaces, and intercepts of the lines with alveolar septa were counted to calculate MCL according to the formula: MCL=ΣPair×L(p)/(Isepta/2) (μm), where ΣPair is the sum of the points of the grid overlaid air spaces, L(p) is the line length per point and Isepta is the sum of the intercepts of alveolar septa with the lines of the grid. For the morphometric assessment of alveolar surface area per unit volume of lung parenchyma (Sv) were determined by counting the number of points that fell on alveolar septal tissue and alveolar space, and by counting the number of intercepts with alveolar septal surface at a magnification of 200× according to the following formulas: Sv=2×Isepta/(ΣPpar×L(p)/3) (1 μm), where ΣPpar is the sum of the points of hitting parenchyma, L(p) is the line length per test point in μm, and Isepta the sum of the intercepts with alveolar septa.

[2] = tested on: elastase-induced emphysema model (mice); assay: qRT-PCR of ECM and alveolar epithelial cell markers in lungs, elastase-induced emphysema; conditions: preventive approach, day 7
Protocol: as §1
(§2) The WNT/β-catenin signaling pathway in lungs from C57BL/6N mice was activated via intraperitoneal injection of lithium chloride (200 mg/KG/BW/day) (22). Lithium chloride mimics members of the WNT family of signalling proteins by inhibiting the activity of GSK-3β and thus causes intracellular accumulation of β-catenin, a feature associated with the canonical WNT/β-catenin signalling pathway (23). Under these circumstances, β-catenin can enter the nucleus and influence the expression of target genes. Lithium chloride was diluted in sterile water and fresh stock was prepared for every injection. Mice were treated on a daily basis, from day 0, the day of elastase subjection to day 7 in the preventive regime, and from day 7 to 14 in the therapeutic regime, respectively. The following scheme illustrates preventive and therapeutic activation of WNT/β-catenin signaling in experimental emphysema:
(§3) Mice were subjected to a single orotracheal application of elastase, which led to the development of pulmonary emphysema from day 1 to 14. WNT/β-catenin activation by treatment with lithium chloride (LiCl) was initiated on day of elastase subjection to day 7 (referred to as preventive approach), or from day 7 to day 14 (referred to as therapeutic approach), using the indicated concentrations (daily application intraperitonal (i.p.), n=6 for each group).
Total RNA was extracted using Qiagen extraction kits according to the manufacturer's protocol, and cDNAs were generated by reverse transcription using SuperScript™ II (Invitrogen). Quantitative (q)RT-PCR was performed using fluorogenic SYBR Green and the Sequence Detection System Fast 7500 (PE Applied Biosystems). HPRT1 and PBGD, ubiquitously and equally expressed genes free of pseudogenes, were used as a reference gene in all human and mouse qRT-PCR reactions, respectively. PCR was performed using the primers listed in Table 1 and 2, respectively, at a final concentration of 200 nM. Relative transcript abundance of a gene is expressed in ΔCt values (ΔCt=ct^reference−Ct^target). Relative changes in transcript levels compared to controls are ΔΔCt values (ΔΔCt=ΔCt^treated−ΔCt^control). All ΔΔCt values correspond approximately to the binary logarithm of the fold change as mentioned in the text. When relative transcript abundance is of information, expression levels are given in ΔCt levels.

[3] = tested on: elastase-induced emphysema model (mice); assay: Collagen assay (Sircol) in whole-lung homogenates, elastase-induced emphysema; conditions: preventive approach, LiCl 200 mg/kg/day i.p. day 0-7; vehicle 29.6±4.1; p=0.042
Protocol: as §1
The WNT/β-catenin signaling pathway in lungs from C57BL/6N mice was activated via intraperitoneal injection of lithium chloride (200 mg/KG/BW/day) (22). Lithium chloride mimics members of the WNT family of signalling proteins by inhibiting the activity of GSK-3β and thus causes intracellular accumulation of β-catenin, a feature associated with the canonical WNT/β-catenin signalling pathway (23). […]
Whole-mouse lung homogenates were used for in vivo analysis. Total collagen content was determined using the Sircol Collagen Assay kit (Biocolor). […] Samples and collagen standards were then read at 540 nm in a spectrophotometer (Bio-Rad). Collagen concentrations were calculated using a standard curve with acid-soluble type I collagen.

[4] = tested on: elastase-induced emphysema model (mice); assay: Histological and immunohistochemical assessment of lung sections, elastase-induced emphysema
Protocol: as §1, §2
as §3, with “group). […]” for “group).”

[5] = tested on: elastase-induced emphysema model (mice); assay: Immunoblotting and densitometry of SP-C in lung homogenates, elastase-induced emphysema; conditions: preventive approach, LiCl 200 mg/kg/day i.p. day 0-7; vehicle 0.36±0.06; p=0.0231
Protocol: as §1
as §2, with “Mice were treated on a daily basis, from day 0, the day of elastase subjection to day 7 in the preventive regime, and from day 7 to 14 in the therapeutic regime, respectively. The following scheme illustrates preventive and therapeutic activation of WNT/β-catenin signaling in experimental emphysema:” left out

## [Cl-].[Li+] [LiCl, Lithium chloride]
[1]; preventive approach, LiCl 200 mg/kg/day i.p. day 0-7, vehicle 109.9±7.8, p=0.0021
  mean chord length: 74.0±6.6 μm
[1]; preventive approach, LiCl 200 mg/kg/day i.p. day 0-7, vehicle 317.8±27.5, p=0.0067
  surface area: 560.7±55.7 cm^2
[1]; therapeutic approach, LiCl 200 mg/kg/day i.p. day 7-14, vehicle 106.4±2.3, p=0.021
  mean chord length: 85.3±2.5
[2]; p=0.003
  cadherin 1 (cdh1) mRNA, log-fold change LiCl-treated versus untreated lungs: 0.97±0.20
[2]; p=0.025
  aquaporin 5 (aqp5) mRNA, log-fold change LiCl-treated versus untreated lungs: 0.63±0.18
[2]; p=0.033
  thyroid transcription factor 1 (ttf1) mRNA, log-fold change LiCl-treated versus untreated lungs: 1.20±0.30
[2]; p=0.0475
  SP-C mRNA, log-fold change LiCl-treated versus untreated lungs: −1.21±0.42
[2]; p=0.0496
  mRNA of type I collagen α1 (col1a1), log-fold change LiCl-treated versus untreated lungs: −0.86±0.33
[2]; p=0.146
  forkhead box P2 (foxp2) mRNA, log-fold change LiCl-treated versus untreated lungs: 1.38±0.59
[3]
  total collagen content in lung homogenates: 16.1 µg/mL
[4]; preventive approach, compared with vehicle-treated mice
  immunohistochemical staining for SP-C, WNT3a and β-catenin: increased appearance of SP-C-positive cells with enhanced staining of the WNT/β-catenin signaling component WNT3a as well as nuclear β-catenin staining
[4]; preventive approach, day 0-7, H&E staining
  histological assessment of the lung structure: marked attenuated emphysematous changes
[4]; therapeutic approach, day 7-14, H&E staining
  histological assessment of the lung structure: marked attenuation of emphysema along with restored lung architecture
[5]
  SP-C protein expression (immunoblot densitometry): 0.62±0.05
